Experiment: Determination of the log P values by HPLC (formic acid method)
Format: physicochemical
Details: reversed-phase column (C 18), acidic range (pH 3.4), 55° C.
Procedure: 1) Description of Method for Determination of the Log P Values (Formic Acid Method)
Eluents for determination in the acidic range (pH 3.4):
Eluent A: acetonitrile+1 ml of formic acid/liter. Eluent B: water+0.9 ml of formic acid/liter.
The lambda max values were determined in the maxima of the chromatographic signals using the UV spectra from 200 nm to 400 nm.

[1] = reversed-phase HPLC column (C 18)

SMILES	log P	also measured
O=C(Nc1ccn(-c2ncc(F)cc2F)n1)c1c(F)cccc1Br [Compound I-1-637]	2.50	
CCc1nccnc1C(=O)Nc1ccn(-c2ncc(F)cc2F)n1 [Compound I-1-489]	2.42	
CCCn1ncc(I)c1C(=O)Nc1ccn(-c2c(F)cccc2F)n1 [Compound I-1-325]	3.11	
Cc1noc(C(F)F)c1C(=O)Nc1ccn(-c2c(F)cccc2F)n1 [Compound I-1-106]	2.53	
Cc1nn(-c2ccccc2Cl)nc1N(C(=O)c1ccccc1C(F)(F)F)C(=O)c1ccccc1C(F)(F)F [Compound I-2-22]	4.54	
CCn1nc(C)c(Br)c1C(=O)Nc1ccn(-c2c(F)cccc2F)n1 [Compound I-1-300]	3.15	
Nc1cnn(-c2ncc(F)cc2F)n1 [Ex.45-V, 2-(3,5-Difluoropyridin-2-yl)-2H-1,2,3-triazole-4-amine]		chromatographic logP [1]: 0.65
O=C(Nc1ccn(-c2nc(F)c(F)cc2F)n1)c1c(F)cccc1F [Compound I-1-166]	2.51	
O=C(Nc1ccn(-c2ncc(F)cc2F)n1)c1snc(Cl)c1Cl [Compound I-1-159]	3.06	
N#Cc1c(-n2ccc(NC(=O)c3ccccc3C(F)(F)F)n2)ccnc1Cl [Compound I-1-585, N-[1-(2-Chloro-3-cyanopyridin-4-yl)-1H-pyrazol-3-yl]-2-(trifluoromethyl)benzamide]		chromatographic logP [1]: 2.67
Nc1ccn(-c2c(F)cccc2F)n1 [1-(2,6-Difluorophenyl)-1H-pyrazole-3-amine]		chromatographic logP: 1.13
Cn1nc(C(F)(F)F)c(C#N)c1C(=O)Nc1ccn(-c2c(F)cccc2F)n1 [Compound I-1-318]	2.98	
O=C(Nc1cnn(-c2ncccc2Br)n1)c1ccccc1I [Compound I-2-18]	2.43	
O=C(Nc1ccn(-c2c(F)cccc2F)n1)c1cccc(F)c1C(F)(F)F [Compound I-1-287]	2.76	
N#Cc1ccc(C(F)(F)F)nc1-n1ccc(NC(=O)c2ccccc2C(F)(F)F)n1 [Compound I-1-569, N-{1-[3-Cyano-6-(trifluoromethyl)pyridin-2-yl]-1H-pyrazol-3-yl}-2-(trifluoromethyl)benzamide]		chromatographic logP [1]: 3.41
CCCN(C(=O)c1ccccc1C(F)(F)F)c1ccn(-c2c(F)cccc2F)n1 [Compound I-1-261]	3.64	
O=C(NC1=NN(c2c(F)cccc2F)CC1)c1c(F)cccc1F [Compound I-4-3]	2.59	
O=C(Nc1ccn(-c2ncc(F)cc2F)n1)c1ncccc1C(F)(F)F [Compound I-1-502]	2.38	
CCc1nnccc1C(=O)Nc1ccn(-c2c(F)cccc2F)n1 [Compound I-1-98]	1.73	
O=C(Nc1ccn(-c2ncc(F)cc2F)n1)C1=C(C(F)(F)F)OCCS1 [Compound I-1-155]	2.35	
Cc1nn(C)c(C(=O)Nc2ccn(-c3ncc(F)cc3F)n2)c1C(F)F [Compound I-1-514]	2.13	
N#Cc1c(F)cccc1-n1ccc(NC(=O)c2c(F)cccc2C(F)(F)F)n1 [Compound I-1-623]	2.68	
CC1=C(C(=O)Nc2ccn(-c3c(F)cccc3F)n2)S(=O)(=O)CCO1 [Compound I-1-616]	1.80	
Cc1nn(C)c(C(=O)Nc2ccn(-c3c(F)cccc3F)n2)c1Cl [Compound I-1-307]	2.78	
Cc1nn(C)c(C(=O)Nc2ccn(-c3c(F)cccc3F)n2)c1Br [Compound I-1-298]	2.76	
O=C(Nc1ccn(-c2c(F)cccc2F)c1)c1ccccc1I [Compound I-3-3]	2.96	

SMILES	log P	also measured
Cc1nn(C)c(C(=O)Nc2ccn(-c3c(F)cccc3F)n2)c1[N+](=O)[O-] [Compound I-1-233]	2.23	
O=C(Nc1nn(-c2ncc(F)cc2F)cc1F)c1ccccc1C(F)(F)F [Compound I-1-465]	2.44	
O=C(Nc1ccn(-c2nccnc2F)n1)c1ccccc1Cl [Compound I-1-174, 2-Chloro-N-[1-(3-fluoropyrazin-2-yl)-1H-pyrazol-3-yl]benzamide]		chromatographic logP [1]: 2.03
Fc1cccc(F)c1-n1cccc1 [Ex. 46-I, 1-(2,6-Difluorophenyl)-1H-pyrrole]		chromatographic logP [1]: 2.98
Cn1nc(C(F)(F)C(F)(F)F)c(C(F)(F)F)c1C(=O)Nc1ccn(-c2ncc(F)cc2F)n1 [Compound I-1-450]	3.65	
O=C(Nc1ccn(-c2c(F)cccc2F)n1)c1sccc1C(F)F [Compound I-1-282]	2.80	
Cn1cnc(C(=O)Nc2ccn(-c3c(F)cccc3F)n2)c1[N+](=O)[O-] [Compound I-1-242]	1.81	
O=C(Nc1ccn(-c2ncc(Cl)cc2F)n1)c1c(F)cccc1F [Compound I-1-588]	2.60	
Cc1cnoc1C(=O)Nc1ccn(-c2c(F)cccc2F)n1 [Compound I-1-327]	2.24	
Cc1nn(C(F)F)c(C(=O)Nc2ccn(-c3ncc(F)cc3F)n2)c1F [Compound I-1-444]	2.65	
Cn1cncc1C(=O)Nc1ccn(-c2c(F)cccc2F)n1 [Compound I-1-644]	0.99	
O=C(Nc1cnn(-c2ncc(F)cc2F)n1)c1c(F)cccc1C(F)(F)F [Compound I-2-71]	2.51	
Cc1nn(-c2ncccc2Cl)nc1N(C(=O)c1ccccc1C(F)(F)F)C(=O)c1ccccc1C(F)(F)F [Compound I-2-54]	3.93	
O=C(Nc1cnn(-c2c(F)cccc2F)n1)c1ccccc1Cl [Compound I-2-38]	2.66	
O=C(Nc1ccn(-c2ncc(F)cn2)n1)c1c(F)cccc1F [Compound I-1-602]	1.83	
O=C(Nc1ccn(-c2ncc(F)cc2F)n1)c1cscc1Br [Compound I-1-524]	2.30	
CCCc1nn(C)c(C(=O)Nc2ccn(-c3c(F)cccc3F)n2)c1Cl [Compound I-1-313]	3.68	
N#Cc1cn(-c2ccccc2Cl)nc1NC(=O)c1ccccc1C(F)(F)F [Compound I-1-346]	2.53	
Cc1cc(NC(=O)c2c(F)cccc2F)nn1-c1ccc(F)cc1F [Compound I-1-206]	3.42	
O=C(Nc1cnn(-c2ccccc2Br)n1)c1cccnc1C(F)(F)F [Compound I-2-8]	2.58	
Nc1ccn(-c2cccc(Cl)c2F)n1 [1-(3-Chloro-2-fluorophenyl)-1H-pyrazole-3-amine]		chromatographic logP [1]: 1.9
COc1ccc(C(=O)Nc2ccn(-c3c(F)cccc3F)c2)c(Cl)c1 [Compound I-3-4]	2.97	
O=C(Nc1ccn(-c2cnc(Cl)cn2)n1)c1cccnc1C(F)(F)F [Compound I-1-386]	2.45	
Cc1nn(C(F)F)c(C(=O)Nc2ccn(-c3c(F)cccc3F)n2)c1F [Compound I-1-231]	2.89	
CC(C)N(C(=O)c1ccccc1C(F)(F)F)c1ccn(-c2c(F)cccc2F)n1 [Compound I-1-260]	3.50	

Now from value to compound, other results behind:

log P	SMILES	also measured
2.92	O=C(Nc1ccn(-c2ccccc2C(F)(F)F)n1)c1ccccc1Cl [Compound I-1-4]	
2.87	COc1ccccc1-n1ccc(NC(=O)c2cc(C)oc2C)n1 [Compound I-1-3]	
2.94	O=C(Nc1ccn(-c2cnc(Cl)cn2)n1)c1ccccc1C(F)(F)F [Compound I-1-385]	
2.57	N#Cc1c(F)cccc1-n1ccc(NC(=O)c2ccccc2Cl)n1 [Compound I-1-621]	
2.36	O=C(Nc1ccn(-c2ncccc2Cl)n1)c1ccccc1I [Compound I-1-138]	
2.73	N#Cc1cc(F)ccc1-n1ccc(NC(=O)c2ccsc2I)n1 [Compound I-1-633]	
2.78	O=C(Nc1ccn(-c2ccc(F)cn2)n1)c1ccccc1I [Compound I-1-599]	
2.72	N#Cc1c(F)cccc1-n1ccc(NC(=O)c2ccccc2C(F)(F)F)n1 [Compound I-1-617]	
2.65	O=C(Nc1ccn(-c2ccccc2Cl)n1)c1c(F)cccc1F [Compound I-1-36]	
2.97	Cc1cccc(C)c1C(=O)Nc1ccn(-c2ccccc2Cl)n1 [Compound I-1-353]	
2.78	O=C(Nc1ccn(-c2ncc(Cl)cc2F)n1)c1ccccc1Br [Compound I-1-589]	
3.03	CCOc1cccc(Cl)c1-n1ccc(NC(=O)c2ccccc2Br)n1 [Compound I-1-398]	
2.96	O=C(Nc1ccn(-c2ccccc2Cl)n1)c1occc1I [Compound I-1-378]	
3.30	O=C(Nc1ccn(-c2ncc(C(F)(F)F)cc2Cl)n1)c1ccccc1Cl [Compound I-1-561]	
3.38	Cc1oc(C)c(C(=O)Nc2ccn(-c3c(F)cccc3F)n2)c1Br [Compound I-1-304]	
2.80	O=C(Nc1ccn(-c2ncc(F)cc2F)n1)c1ccccc1CC(F)(F)F [Compound I-1-635]	
1.96	O=C(Nc1ccn(-c2c(F)cccc2F)n1)c1cccnc1Cl [Compound I-1-95]	
3.33	O=C(Nc1ccn(-c2cncc(F)n2)n1)c1ccccc1C(F)(F)F [Compound I-1-401]	
2.69	COc1ccccc1-n1ccc(NC(=O)c2ccccc2Br)n1 [Compound I-1-2]	
3.15	CCOc1cccc(Cl)c1-n1ccc(NC(=O)c2ccccc2C(F)(F)F)n1 [Compound I-1-340]	
2.31	O=C(Nc1ccn(-c2cccnc2Cl)n1)c1ccccc1C(F)(F)F [Compound I-1-391]	
2.55	N#Cc1ccccc1-n1ccc(NC(=O)c2ccccc2C(F)(F)F)n1 [Compound I-1-9]	
1.77	O=C(Nc1ccn(-c2ncc(F)cc2F)n1)c1cccnc1Br [Compound I-1-482]	
3.05	O=C(Nc1ccn(-c2ccccc2C(F)(F)F)n1)c1ccnn1C(F)F [Compound I-1-7]	
2.64	O=C(Nc1ccn(-c2ncc(F)cc2Cl)n1)c1ccccc1C(F)(F)F [Compound I-1-183]	
3.00	Cn1nc(C(F)(F)F)c(C(=O)Nc2ccn(-c3ccccc3Br)n2)c1F [Compound I-1-59]	
2.92	CCc1ccccc1C(=O)Nc1ccn(-c2c(F)cccc2F)n1 [Compound I-1-78]	

— US9802899B2, “Heterocyclic compounds as pesticides” (BAYER CROPSCIENCE AG, priority 2012, dated 2017)
